Measurements reported in patent US4746675A, “External pharmaceutical composition” (Teijin Limited, priority 1983, dated 1988).
Like-named read-outs stand apart in the source and are kept apart here.

Columns and labels:
[1] = concentration of indomethacin in rat blood after application of ointment to the back; conditions: for Concentration of indomethacin in the blood: rat, in vivo
Method: An ointment was prepared from 1 part by weight of indomethacin, 10 parts by weight of compound (168) and 89 parts by weight of a hydrophilic ointment (composed of 250 parts of white Vaseline, 220 parts by weight of stearyl alcohol, 120 parts by weight of propylene glycol, 15 parts by weight of sodium laurylsulfate, 0.25 part by weight of ethyl p-hydroxybenzoate, 0.15 part by weight of propyl p-hydroxybenzoate and a small amount of purified water). The back of a rat (body weight about 250 g) was cut by an electric hair-clipper, and 100 mg of the resulting ointment was applied by a finger to a circular unhaired portion, 4 cm in diameter. The blood was drawn from the tail of the rat periodically, and the concentration of indomethacin in the blood was determined periodically by high-performance liquid chromatography.
Various ointments were prepared from 1 part by weight of indomethacin, 10 parts of each of various penetration enhancers shown in Table 2 and the hydrophilic ointment, and tested as in Example 1.

[2] = system: carrageenan edema; assay: carrageenan edema inhibiting effect of betamethasone valerate ointments; assay type: in vivo, rat; conditions: for Percentage inhibition vs. control: Table 5, betamethasone valerate ointment with penetration enhancer; for Percentage inhibition based on the control: 0.15% betamethasone valerate, 9.85% Compound (168) or none
Method: An ointment was prepared from 0.15 part by weight of betamethasone valerate, 9.85 parts by weight of compound (168) and 90 parts by weight of the hydrophilic ointment.
In accordance with the method of R. Passarella et al. [Argneim. Forsch 30, (I), Nr. 4, 647-651 (1980)], the carrageenan edema inhibiting effect of the above ointment was examined. Specifically, 0.1 ml of a 1% carrageenan suspension in 0.9% NaCl solution was injected into the tip of the right leg of a rat (body weight 150-175 g). The foot volume was measured immediately after administration of carrageenan and 3, 5, and 6 hours after the administration by means of a mercury displacement device. 0.5, 1 and 2 hours after the administration of carrageenan, 100 mg of the ointment was well […] into each of the sites which underwent inflammation.
Various ointments were prepared from 0.15 part by weight of betamethasone valerate, […] of the various penetration enhancers shown in Table 5, and 85 parts by weight of the hydrophilic ointment, and tested in the same way as in Example 23.

[3] = system: serum calcium level; assay: serum calcium after intrarectal administration of calcitonin composition to rats; assay type: in vivo, rat; conditions: versus the comparative suppository
Source text: Cacao butter (93 parts by weight) and 7 parts by weight of compound (168) or compound (173) were uniformly mixed, and (Asu^1.7)-eel calcitonin was gradually added and mixed to form a uniform composition. The composition was slightly warmed, and placed into a suppository container to form a suppository for rats having a diameter of about 3 mm and a length of about 6 mm. This suppository contained 0.7 MRC unit of calcitonin. The suppository was intrarectally administered to a rat, and the concentration of calcium in the blood serum after administration was measured by using a calcium measuring kit (made by Iatoron Co.).
Various […] were prepared from cacao butter, the various penetration enhancers shown in Table 12 and [Asu^1.7 ]-eel calcitonin, and tested in the same way as in Example 85.

[4] = system: blood glucose level; assay: blood glucose after intrarectal administration of hog insulin suppository to rabbits; assay type: in vivo, rabbit; conditions: for Percent decrease of the blood glucose level from that before the administration: hog insulin 9.6 units, intrarectal, rabbit; for absorption of insulin from the suppository: versus the comparative suppository
Method: Sixty parts by weight of fractionated coconut oil and 10 parts by weight of compound (168) or compound (173) were uniformly mixed, and then hog insulin was gradually added to form a uniform dispersion. The dispersion was filled in a gelatin capsule for suppositories to form a gelatin capsular suppository. These suppository contained 9.6 units of insulin. The suppository was intrarectally administered to a rabbit, and the blood glucose level after administration was measured by the glucose oxidase method.

[5] = concentration of cephalothin sodium in blood after intrarectal administration of suppository; assay type: in vivo, Beagle dog; conditions: versus the comparative suppository
Method: Eighty parts by weight of cacoa butter, 10 parts by weight of compound (168) and 10 parts by weight of cephalothin sodium were uniformly mixed and then slightly warmed. The mixture was filled in a suppository container to form a suppository containing 1 g of the mixture. The suppository was administered intrarectally to a Beagle dog, and the concentration of cephalothin sodium in the blood after administration was measured by the cup method.

[6] = system: serum calcium level; assay: serum calcium after nasal administration of calcitonin nasal drop to rabbits; assay type: in vivo, New Zealand white male rabbit; conditions: for Percent decrease of the serum calcium level from before administration: [Asu^1.7]-eel calcitonin nasal drop, 15 units/50 μl, rabbit
Method: This nasal drop contained 15 units/50 μl of calcitonin. Fifty microliters of the nasal drop was administered to the nasal cavity of a New Zealand white male rabbit, and the concentration of calcium in the serum after administration was measured by using a calcium measuring kit (made by Iatron Co.).

[7] = system: eye (cornea, iris, conjunctiva); assay: primary eye irritation (Draize) in rabbits; assay type: in vivo, white native male rabbits; conditions: 2.4% soln, average of three rabbits
Method: enhancers of this invention shown in Table 17 was applied dropwise to one eye of white native male rabbits (body weight 2.0 to 3.0 kg; 3 per group) which, it had been ascertained, were free from any trouble at the cornea, iris and conjunctiva. Nothing was applied to the other eye. Thus, irritation of the absorption aid to the mucous membrane of the eyes were examined, and scores were calculated in accordance with the Draize's eye irritation evaluating method [Association of Foods, "Drugs and Cosmetics" (1957)].
As a control, sodium laurylsulfate, a kind of surface-active agent, was evaluated in the same way, and the results are also shown in Table 17.

[8] = diffusion of drug through egg shell membrane in diffusion cell; assay type: in vitro ADME
Method: A diffusion cell was partitioned by an egg shell membrane. […] While maintaining a temperature of 37° C., the two liquid phases were stirred, and after a lapse of a predetermined period of time, the amount of the drug which diffused into the acceptor side from the donor side was measured.
The diffusion cell used was a glass cell for use in an ordinary diffusion experiment. The egg shell was obtained by removing the contents of an egg from the shell, immersing the shell in 0.7% acetic acid for 30 minutes, subjecting it to ultrasonication for 15 minutes, and carefully peeling the membrane from the shell.
A control test was carried out in the same way as above except that only the drug was added to the donor side.
The amount of the drug which diffused to the acceptor side was measured 30 minutes later, and compared with the control.
The relative amount of the drug diffused from the drug-penetration enhancer system was calculated by taking the amount of the drug diffused from the control donor side as 100. […] Bull., Vol. 20, p.

[9] = 30 minutes, drug 0.05% with compound (168) 1.0% on donor side, drug alone = 100, 37° C.

For `O=C1CC[C@@H](C(=O)O)N1` [Pyroglutamic acid, pyroglutamic acid], the “Concentration of indomethacin in the blood” value (shortened to “Concentration of indomethacin”) ([1]; 60 min) was 1400 ng/mL, the “Concentration of indomethacin” value ([1]; 180 min) was 2200 ng/mL and the “Concentration of indomethacin” value ([1]; 300 min) was 2000 ng/mL. For the same compound, the “Concentration of indomethacin” value ([1]; 420 min) was 1800 ng/mL and the “Concentration of indomethacin” value ([1]; 1440 min) was 700 ng/mL.

With `CCCCCCCCCCCCCCCCCC(=O)OCC(O)COC(=O)[C@@H]1CCC(=O)N1` (stereo partly shown) [Compound (173), 2-hydroxy-3-octadecanoyloxy-1-pyroglutamyloxypropane] the “Percentage inhibition vs. control” value ([2]; 3 hrs) was 15.3%, the “Percentage inhibition vs. control” value ([2]; 5 hrs) was 32.3% and the “Percentage inhibition vs. control” value ([2]; 6 hrs) was 33.4%. For the same compound, the “absorption of calcitonin from the suppository” value [3] was “better”, the “Percent decrease of the blood glucose level from that before the administration” value ([4]; 30 min) was 29.4% and the “Percent decrease of the blood glucose level from that before the administration” value ([4]; 1 hr) was 33.3%. The “Percent decrease of the blood glucose level from that before the administration” value ([4]; 2 hrs) was 18.6%, the “Percent decrease of the blood glucose level from that before the administration” value ([4]; 3 hrs) was 3.7% and the “absorption of insulin from the suppository” value [4] was “better”.

In the case of `CCCCCCCC/C=C\CCCCCCCC(=O)OCC(O)COC(=O)[C@@H]1CCC(=O)N1` (stereo partly shown) [Compound (168), 2-hydroxy-3-oleoyloxy-1-pyroglutamyloxypropane], the “absorption of indomethacin from the ointment” value ([1]; versus the comparative ointments) is reported as “better”, the “Percentage inhibition based on the control” value (“Percentage inhibition based” for short) ([2]; 3 hrs) is reported as 19.7% and the “Percentage inhibition based” value ([2]; 5 hrs) is reported as 36.8%. For the same compound, the “Percentage inhibition based” value ([2]; 6 hrs) was 39.2%, the “absorption of calcitonin from the suppository” value [3] was “better” and the “Percent decrease of the blood glucose level from that before the administration” value ([4]; 30 min) was 32.8%. The “Percent decrease of the blood glucose level from that before the administration” value ([4]; 1 hr) was 36.3%, the “Percent decrease of the blood glucose level from that before the administration” value ([4]; 2 hrs) was 19.1% and the “Percent decrease of the blood glucose level from that before the administration” value ([4]; 3 hrs) was 5.2%. For the same compound, the “absorption of insulin from the suppository” value [4] was “better”, the “absorption of cephalothin sodium from the suppository” value [5] was “better” and the “Percent decrease of the serum calcium level from before administration” value ([6]; 1 hr) was 6.1%. The “Percent decrease of the serum calcium level from before administration” value ([6]; 2 hrs) was 4.0%, the “Percent decrease of the serum calcium level from before administration” value ([6]; 3 hrs) was 1.8% and the “Percent decrease of the serum calcium level from before administration” value ([6]; 5 hrs) was 0.9%. The “absorption of calcitonin from the nasal composition” value ([6]; versus the comparative composition) was “better”, the “Primary irritation score, Conjunctiva” value ([7]; 1 hour) was 2.0 and the “Primary irritation score, Cornea” value ([7]; 1 hour) was 0. The “Primary irritation score, Iris” value ([7]; 1 hour) was 0, the “Primary irritation score, Total” value ([7]; 1 hour) was 2.0 and the “Primary irritation score, Conjunctiva” value ([7]; 3 hours) was 2.0. The “Primary irritation score, Cornea” value ([7]; 3 hours) was 0, the “Primary irritation score, Iris” value ([7]; 3 hours) was 0 and the “Primary irritation score, Total” value ([7]; 3 hours) was 2.0. The “Primary irritation score, Conjunctiva” value ([7]; 6 hours) was 1.3, the “Primary irritation score, Cornea” value ([7]; 6 hours) was 0 and the “Primary irritation score, Iris” value ([7]; 6 hours) was 0. The “Primary irritation score, Total” value ([7]; 6 hours) was 1.3, the “Primary irritation score, Conjunctiva” value ([7]; 24 hours) was 0 and the “Primary irritation score, Cornea” value ([7]; 24 hours) was 0. For the same compound, the “Primary irritation score, Iris” value ([7]; 24 hours) was 0, the “Primary irritation score, Total” value ([7]; 24 hours) was 0 and the “Primary irritation score, Conjunctiva” value ([7]; 48 hours) was 0. The “Primary irritation score, Cornea” value ([7]; 48 hours) was 0, the “Primary irritation score, Iris” value ([7]; 48 hours) was 0 and the “Primary irritation score, Total” value ([7]; 48 hours) was 0. The “Primary irritation score, Conjunctiva” value ([7]; 72 hours) was 0, the “Primary irritation score, Cornea” value ([7]; 72 hours) was 0 and the “Primary irritation score, Iris” value ([7]; 72 hours) was 0. For the same compound, the “Primary irritation score, Total” value ([7]; 72 hours) was 0, the “Primary irritation score, Conjunctiva” value ([7]; 96 hours) was 0 and the “Primary irritation score, Cornea” value ([7]; 96 hours) was 0. For the same compound, the “Primary irritation score, Iris” value ([7]; 96 hours) was 0, the “Primary irritation score, Total” value ([7]; 96 hours) was 0 and the “Primary irritation score, Conjunctiva” value ([7]; 168 hours) was 0. For the same compound, the “Primary irritation score, Cornea” value ([7]; 168 hours) was 0, the “Primary irritation score, Iris” value ([7]; 168 hours) was 0 and the “Primary irritation score, Total” value ([7]; 168 hours) was 0.

With `C[C@]12CC[C@@H]3c4ccc(O)cc4CC[C@H]3[C@@H]1CC[C@@H]2O` [Estradiol] the “Relative amount of the drug diffused” value [8] was 181.

In the case of `COC1=CC(=O)C[C@@H](C)[C@]12Oc1c(Cl)c(OC)cc(OC)c1C2=O` [Griseofulvin], the “Relative amount of the drug diffused” value [8] is reported as 209.

With `CN1C(C(=O)Nc2ccccn2)=C(O)c2ccccc2S1(=O)=O` [Piroxicam] the “Relative amount of the drug diffused” value [8] was 177.

In the case of `O=C(O)c1ccccc1O` [Salicylic acid], the “Relative amount of the drug diffused” value [8, 9] is reported as 203.

For `CN(C)CCCN1c2ccccc2Sc2ccc(Cl)cc21` [Chlorpromazine], the “Relative amount of the drug diffused” value [8, 9] was 133.
